{"source": "patent US12054498B2", "about": "“Heteroaromatic macrocyclic ether chemotherapeutic agents” (Nuvalent, Inc., priority 2020, dated 2024)", "key": {"[1]": {"biological_target": "T1, ROS1-wt (Homo sapiens, UniProt P08922)", "T1 construct": "purchased Carna 08-163", "T1 sequence (P08922 1945-2222 limits assumed)": "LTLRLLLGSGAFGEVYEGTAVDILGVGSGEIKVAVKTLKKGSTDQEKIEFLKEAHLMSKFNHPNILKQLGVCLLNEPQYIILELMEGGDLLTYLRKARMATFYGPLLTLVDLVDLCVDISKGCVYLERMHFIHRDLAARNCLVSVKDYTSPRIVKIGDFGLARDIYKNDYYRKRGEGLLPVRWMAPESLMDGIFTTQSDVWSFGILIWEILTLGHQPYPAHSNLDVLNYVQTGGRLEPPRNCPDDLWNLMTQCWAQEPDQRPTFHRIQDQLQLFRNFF", "experiment": "Biochemical kinase assay, ROS1-wt kinase domain", "conditions": "apparent inhibitory constant, Morrison equation; ATP 2 mM in substrate solution; read-out: ROS1-wt Ki^app", "outline": "(§1)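 Compounds, as 100-fold DMSO stocks, were dispensed first, then substrate mix was added (ATP 2 mM, AQT0101 26 μM, in 50 mM HEPES pH 7.5/10 mM MgCl2). Reactions ran at 30 °C with fluorescence logged every 2 min over 120 min. Apparent inhibition constants came from fitting rates to Morrison's tight-binding equation.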"}, "[2]": {"biological_target": "T2, Ba/F3 cells TPM3-TRKA (Homo sapiens, UniProt P04629)", "T2 construct": "host or cells: Ba/F3 (RIKEN), retroviral pMSCV-puro; the other entry of the earlier key: TPM3 (P06753, Tropomyosin alpha-3 chain)", "T2 sequence (P04629 510-796 limits assumed)": "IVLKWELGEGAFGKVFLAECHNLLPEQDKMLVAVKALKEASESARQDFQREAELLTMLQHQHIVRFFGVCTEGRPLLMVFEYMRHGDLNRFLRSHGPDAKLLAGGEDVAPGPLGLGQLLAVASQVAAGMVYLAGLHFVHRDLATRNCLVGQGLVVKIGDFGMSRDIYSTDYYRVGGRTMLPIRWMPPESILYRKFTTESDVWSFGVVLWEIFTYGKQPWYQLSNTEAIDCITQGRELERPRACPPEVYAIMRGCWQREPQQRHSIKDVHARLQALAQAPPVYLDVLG", "experiment": "Ba/F3 cell proliferation assay, TPM3-TRKA", "type": "cell-based", "conditions": "72 hours, CellTiter-Glo, read-out: TPM3-NTRK1-wt IC50", "outline": "(§2)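 Proliferation of fusion-driven Ba/F3 monoclones (grown without IL-3, puromycin 0.8 μg/mL) is followed over 72 hours of treatment with a 3-fold compound dilution series. ATP content is read by CellTiter-Glo luminescence, and IC50 is derived by four-parameter logistic fitting of percent inhibition.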"}, "[3]": {"biological_target": "T3, TRKA-wt (Homo sapiens, UniProt P04629)", "T3 construct": "or TRKA-wt (1 nM, BPS Bio, 40280) kinase domains in buffer; purchased BPS Bio 40280", "T3 sequence (P04629 510-781 limits assumed)": "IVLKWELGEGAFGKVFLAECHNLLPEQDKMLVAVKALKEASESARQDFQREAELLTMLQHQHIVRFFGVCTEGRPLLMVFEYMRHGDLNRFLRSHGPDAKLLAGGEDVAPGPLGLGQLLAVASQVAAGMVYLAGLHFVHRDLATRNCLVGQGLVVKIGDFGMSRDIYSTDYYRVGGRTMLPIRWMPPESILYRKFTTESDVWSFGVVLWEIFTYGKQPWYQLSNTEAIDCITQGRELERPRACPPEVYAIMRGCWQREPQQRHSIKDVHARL", "experiment": "Biochemical kinase assay, TRKA-wt kinase domain", "conditions": "apparent inhibitory constant, Morrison equation; ATP 2 mM in substrate solution; read-out: TRKA-wt Ki^app", "outline": "(§3)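 Apparent Ki values come from fitting initial reaction rates against inhibitor concentration to the Morrison equation. Rates were taken from the linear phase of fluorogenic substrate phosphorylation (AQT0101 for ALK and ROS1, AQT0104 for TRKA; 26 μM in substrate solution with 2 mM ATP), monitored at 485 nm over 120 min at 30° C.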"}, "[4]": {"biological_target": "T4, Ba/F3 cells CD74-ROS1 wild-type (wt) (Homo sapiens, UniProt P08922)", "T4 construct": "fusion of the C-terminus of ROS1 with the N-terminus of various partner proteins; host or cells: Ba/F3 (RIKEN), retroviral pMSCV-puro; the other entry of the earlier key: CD74 (P04233, HLA class II histocompatibility antigen gamma chain)", "T4 sequence (P08922 1883-2347 limits assumed)": "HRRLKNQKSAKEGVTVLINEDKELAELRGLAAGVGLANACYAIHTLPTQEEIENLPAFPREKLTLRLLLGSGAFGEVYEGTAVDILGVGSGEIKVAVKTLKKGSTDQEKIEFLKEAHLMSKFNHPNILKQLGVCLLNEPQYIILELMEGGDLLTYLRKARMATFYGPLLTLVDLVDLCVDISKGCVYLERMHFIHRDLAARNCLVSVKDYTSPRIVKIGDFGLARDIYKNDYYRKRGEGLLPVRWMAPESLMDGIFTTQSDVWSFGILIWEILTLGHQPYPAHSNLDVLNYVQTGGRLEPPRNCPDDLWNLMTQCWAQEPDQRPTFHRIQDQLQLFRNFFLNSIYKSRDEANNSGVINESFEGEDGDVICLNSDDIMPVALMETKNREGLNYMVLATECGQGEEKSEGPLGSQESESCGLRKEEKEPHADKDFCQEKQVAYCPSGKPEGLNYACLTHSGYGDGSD", "experiment": "Ba/F3 cell proliferation assay, CD74-ROS1 wild-type", "type": "cell-based", "conditions": "72 hours, CellTiter-Glo", "outline": "(§4)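 Cells seeded 1 day, then treated with 3-fold compound dilutions for 72 h; viability by CellTiter-Glo luminescence. IC50 from percent inhibition by four-parameter logistic fit.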"}, "[5]": {"biological_target": "T5, ROS1-G2032R (Homo sapiens, UniProt P08922, G2032R)", "T5 construct": "purchased SignalChem R14-12BG", "T5 sequence (P08922 1945-2222 G2032R limits assumed)": "as the sequence (P08922 1945-2222 limits assumed) above, with G88R counted along it", "experiment": "Biochemical kinase assay, ROS1-G2032R kinase domain", "conditions": "apparent inhibitory constant, Morrison equation; ATP 2 mM in substrate solution; read-out: ROS1-G2032R Ki^app", "outline": "as §1"}, "[6]": {"biological_target": "T6, ALK L1196M/G1202R (Homo sapiens, UniProt Q9UM73, G1202R/L1196M)", "T6 construct": "purchased SignalChem A19-12NG", "T6 sequence (Q9UM73 1116-1392 L1196M/G1202R limits assumed)": "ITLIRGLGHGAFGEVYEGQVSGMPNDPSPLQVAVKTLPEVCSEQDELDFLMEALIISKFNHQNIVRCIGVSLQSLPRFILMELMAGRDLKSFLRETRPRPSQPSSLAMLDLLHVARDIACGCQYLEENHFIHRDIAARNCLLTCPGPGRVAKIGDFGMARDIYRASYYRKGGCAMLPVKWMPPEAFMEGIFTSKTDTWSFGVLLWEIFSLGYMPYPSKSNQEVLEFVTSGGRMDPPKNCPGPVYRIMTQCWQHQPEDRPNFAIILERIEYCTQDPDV", "experiment": "Biochemical kinase assay, ALK L1196M/G1202R kinase domain", "conditions": "apparent inhibitory constant, Morrison equation; ATP 2 mM in substrate solution; read-out: ALK-L1196M-G1202R Ki^app", "outline": "as §3"}, "[7]": {"biological_target": "T7, Ba/F3 cells EML4-ALK L1196M/G1202R (variant 1) (Homo sapiens, UniProt Q9UM73, G1202R/L1196M)", "T7 construct": "echinoderm microtubule-associated protein-like 4 (EML4) gene and the ALK tyrosine kinase domain; host or cells: Ba/F3 (RIKEN), retroviral pMSCV-puro; the other entry of the earlier key: EML4 (Q9HC35, Echinoderm microtubule-associated protein-like 4)", "T7 sequence (Q9UM73 with tags, fused parts or gaps L1196M/G1202R)": "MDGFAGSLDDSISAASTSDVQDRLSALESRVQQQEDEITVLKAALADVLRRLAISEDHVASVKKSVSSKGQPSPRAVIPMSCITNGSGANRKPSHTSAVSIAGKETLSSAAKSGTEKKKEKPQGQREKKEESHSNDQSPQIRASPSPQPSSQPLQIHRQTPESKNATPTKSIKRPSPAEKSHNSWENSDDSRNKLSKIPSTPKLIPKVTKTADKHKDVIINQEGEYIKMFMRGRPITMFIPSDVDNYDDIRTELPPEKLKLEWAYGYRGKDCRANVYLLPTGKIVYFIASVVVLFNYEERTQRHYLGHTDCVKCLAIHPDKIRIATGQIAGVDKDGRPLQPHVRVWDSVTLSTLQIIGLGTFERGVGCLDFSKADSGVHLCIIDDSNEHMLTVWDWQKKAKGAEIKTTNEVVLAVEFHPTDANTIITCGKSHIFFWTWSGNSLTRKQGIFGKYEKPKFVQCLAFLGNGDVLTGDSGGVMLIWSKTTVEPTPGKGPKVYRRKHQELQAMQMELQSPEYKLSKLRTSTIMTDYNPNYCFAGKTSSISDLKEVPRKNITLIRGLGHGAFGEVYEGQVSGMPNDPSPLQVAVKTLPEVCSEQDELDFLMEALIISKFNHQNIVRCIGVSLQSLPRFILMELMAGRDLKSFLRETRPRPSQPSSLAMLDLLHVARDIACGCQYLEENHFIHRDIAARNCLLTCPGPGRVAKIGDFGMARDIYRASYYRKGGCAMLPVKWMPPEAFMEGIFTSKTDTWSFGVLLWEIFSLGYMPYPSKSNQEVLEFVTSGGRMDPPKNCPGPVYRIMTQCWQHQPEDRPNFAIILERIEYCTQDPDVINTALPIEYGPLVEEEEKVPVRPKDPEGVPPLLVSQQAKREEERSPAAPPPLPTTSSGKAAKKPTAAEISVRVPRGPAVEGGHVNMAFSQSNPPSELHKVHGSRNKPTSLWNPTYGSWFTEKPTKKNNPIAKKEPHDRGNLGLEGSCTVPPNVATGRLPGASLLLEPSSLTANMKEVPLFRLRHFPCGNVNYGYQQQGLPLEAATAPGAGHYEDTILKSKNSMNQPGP", "experiment": "Ba/F3 cell proliferation assay, EML4-ALK L1196M/G1202R (variant 1)", "type": "cell-based", "conditions": "72 hours, CellTiter-Glo", "outline": "as §2"}, "[8]": {"biological_target": "T8, ALK-wt (Homo sapiens, UniProt Q9UM73)", "T8 construct": "purchased Carna 08-518", "T8 sequence (Q9UM73 1116-1392 limits assumed)": "as the sequence (Q9UM73 1116-1392 L1196M/G1202R limits assumed) above, with M81L, R87G counted along it", "experiment": "Biochemical kinase assay, ALK-wt kinase domain", "conditions": "apparent inhibitory constant, Morrison equation; ATP 2 mM in substrate solution; read-out: ALK-wt Ki^app", "outline": "as §3"}, "[9]": {"tested_on": "TPM3-NTRK1-wt IC50 / primary target IC50 (e.g. CD74-ROS1-wt)", "experiment": "TRKA selectivity in Ba/F3 cells (TRKA potency divided by primary target potency)", "type": "cell-based", "conditions": "for TPM3-NTRK1-wt/CD74-ROS1-G2032R selectivity ratio: TRKA potency / CD74-ROS1-G2032R potency; for TPM3-NTRK1-wt/CD74-ROS1-wt selectivity ratio: TRKA potency / CD74-ROS1-wt potency; for TPM3-NTRK1-wt/EML4-ALK-L1196M-G1202R selectivity ratio: TRKA potency / EML4-ALK-L1196M-G1202R potency; for TPM3-NTRK1-wt/EML4-ALK-wt selectivity ratio: TRKA potency / EML4-ALK-wt potency", "method": "TRKA selectivity was calculated by dividing a compound's TRKA potency by its primary target potency (e.g. TPM3-NTRK1-wt IC50/CD74-ROS1-wt IC50). Compound selectivity can be interpreted by binning ratio values: bin A for very high selectivity, ratio >30-fold; bin B for high selectivity, ratio >10-fold; bin C for moderate selectivity, ratio ≥1; and bin D for low selectivity, ratio <1. […] (nd=not determined)."}, "[10]": {"biological_target": "T9, Ba/F3 cells CD74-ROS1 G2032R (Homo sapiens, UniProt P08922, G2032R)", "T9 construct": "fusion of the C-terminus of ROS1 with the N-terminus of various partner proteins; host or cells: Ba/F3 (RIKEN), retroviral pMSCV-puro; the other entry of the earlier key: CD74 (P04233, HLA class II histocompatibility antigen gamma chain)", "T9 sequence (P08922 1883-2347 G2032R limits assumed)": "as the sequence (P08922 1883-2347 limits assumed) above, with G150R counted along it", "experiment": "Ba/F3 cell proliferation assay, CD74-ROS1 G2032R", "type": "cell-based", "conditions": "72 hours, CellTiter-Glo", "outline": "as §4"}, "[11]": {"biological_target": "T10, Ba/F3 cells EML4-ALK wt (variant 1) (Homo sapiens, UniProt Q9UM73)", "T10 construct": "echinoderm microtubule-associated protein-like 4 (EML4) gene and the ALK tyrosine kinase domain; host or cells: Ba/F3 (RIKEN), retroviral pMSCV-puro; the other entry of the earlier key: EML4 (Q9HC35, Echinoderm microtubule-associated protein-like 4)", "T10 sequence (Q9UM73 with tags, fused parts or gaps)": "as the sequence (Q9UM73 with tags, fused parts or gaps L1196M/G1202R) above, with M635L, R641G counted along it", "experiment": "Ba/F3 cell proliferation assay, EML4-ALK wt (variant 1)", "type": "cell-based", "conditions": "72 hours, CellTiter-Glo", "outline": "as §2"}}}
{"smiles": "CCc1nn(C)c2c1-c1cnc(N)c(c1)O[C@H](C)c1cc(F)ccc1-c1nn(C)nc1C2", "note": "[Example 98, (19R)-3-ethyl-16-fluoro-5,10,19-trimethyl-20-oxa-4,5,9,10,11,23-hexaazapentacyclo[19.3.1.0^2,^6.0^8,^12.0^13,^18]pentacosa-1(24),2(6),3,8,11,13,15,17,21(25),22-decaen-22-amine]", "values": [{"measurement": "Ki", "setting": "[1]", "value": "< 50", "unit": "nM"}, {"measurement": "IC50", "setting": "[2]", "value": "50 to 500", "unit": "nM"}, {"measurement": "Ki", "setting": "[3]", "value": "50 to 500", "unit": "nM"}, {"measurement": "IC50", "setting": "[4]", "value": "0.1 to 50", "unit": "nM"}, {"measurement": "Ki", "setting": "[5]", "value": "< 50", "unit": "nM"}, {"measurement": "Ki", "setting": "[6]", "value": "< 50", "unit": "nM"}, {"measurement": "IC50", "setting": "[7]", "value": "0.1 to 50", "unit": "nM"}, {"measurement": "Ki", "setting": "[8]", "value": "< 50", "unit": "nM"}, {"measurement": "TPM3-NTRK1-wt/CD74-ROS1-G2032R selectivity ratio", "setting": "[9]", "value": "A (bin A for very high selectivity, ratio >30-fold)"}, {"measurement": "TPM3-NTRK1-wt/CD74-ROS1-wt selectivity ratio", "setting": "[9]", "value": "A (bin A for very high selectivity, ratio >30-fold)"}, {"measurement": "TPM3-NTRK1-wt/EML4-ALK-L1196M-G1202R selectivity ratio", "setting": "[9]", "value": "C (bin C for moderate selectivity, ratio ≥1)"}, {"measurement": "TPM3-NTRK1-wt/EML4-ALK-wt selectivity ratio", "setting": "[9]", "value": "A (bin A for very high selectivity, ratio >30-fold)"}, {"measurement": "IC50", "setting": "[10]", "value": "0.1 to 50", "unit": "nM"}, {"measurement": "IC50", "setting": "[11]", "value": "0.1 to 50", "unit": "nM"}]}
{"smiles": "CCc1noc2c1-c1cnc(N)c(c1)O[C@H](C)c1cc(F)ccc1-c1cn(C)nc1C2", "note": "[Example 23, (19R)-3ethyl-16-fluoro-10,19-dimethyl-5,20-dioxa-4,9,10,23-tetraazapentacyclo[19.3.1.0^2,^6.0^8,^12.0^13,^18]pentacosa-1(24),2(6),3,8,11,13,15,17,21(25),22-decaen-22-amine]", "values": [{"measurement": "Ki", "setting": "[1]", "value": "< 50", "unit": "nM"}, {"measurement": "IC50", "setting": "[2]", "value": "50 to 500", "unit": "nM"}, {"measurement": "Ki", "setting": "[3]", "value": "50 to 500", "unit": "nM"}, {"measurement": "IC50", "setting": "[4]", "value": "0.1 to 50", "unit": "nM"}, {"measurement": "Ki", "setting": "[5]", "value": "< 50", "unit": "nM"}, {"measurement": "Ki", "setting": "[6]", "value": "< 50", "unit": "nM"}, {"measurement": "IC50", "setting": "[7]", "value": "50 to 500", "unit": "nM"}, {"measurement": "Ki", "setting": "[8]", "value": "< 50", "unit": "nM"}, {"measurement": "TPM3-NTRK1-wt/CD74-ROS1-G2032R selectivity ratio", "setting": "[9]", "value": "A (bin A for very high selectivity, ratio >30-fold)"}, {"measurement": "TPM3-NTRK1-wt/CD74-ROS1-wt selectivity ratio", "setting": "[9]", "value": "A (bin A for very high selectivity, ratio >30-fold)"}, {"measurement": "TPM3-NTRK1-wt/EML4-ALK-L1196M-G1202R selectivity ratio", "setting": "[9]", "value": "C (bin C for moderate selectivity, ratio ≥1)"}, {"measurement": "TPM3-NTRK1-wt/EML4-ALK-wt selectivity ratio", "setting": "[9]", "value": "B (bin B for high selectivity, ratio >10-fold)"}, {"measurement": "IC50", "setting": "[10]", "value": "0.1 to 50", "unit": "nM"}, {"measurement": "IC50", "setting": "[11]", "value": "0.1 to 50", "unit": "nM"}]}
{"smiles": "CCn1nnc2c1-c1cnc(N)c(c1)O[C@H](C)c1cc(F)ccc1-c1cc(Cl)nn1C2", "note": "[Example 54, (19R)-10-chloro-3-ethyl-16-fluoro-19-methyl-20-oxa-3,4,5,8,9,23-hexaazapentacyclo[19.3.1.0^2,^6.0^8,^12.0^13,^18]pentacosa-1(24),2(6),4,9,11,13,15,17,21(25),22-decaen-22-amine]", "values": [{"measurement": "Ki", "setting": "[1]", "value": "< 50", "unit": "nM"}, {"measurement": "IC50", "setting": "[2]", "value": "50 to 500", "unit": "nM"}, {"measurement": "Ki", "setting": "[3]", "value": "50 to 500", "unit": "nM"}, {"measurement": "IC50", "setting": "[4]", "value": "0.1 to 50", "unit": "nM"}, {"measurement": "Ki", "setting": "[5]", "value": "< 50", "unit": "nM"}, {"measurement": "Ki", "setting": "[6]", "value": "50 to 500", "unit": "nM"}, {"measurement": "IC50", "setting": "[7]", "value": "50 to 500", "unit": "nM"}, {"measurement": "Ki", "setting": "[8]", "value": "< 50", "unit": "nM"}, {"measurement": "TPM3-NTRK1-wt/CD74-ROS1-G2032R selectivity ratio", "setting": "[9]", "value": "A (bin A for very high selectivity, ratio >30-fold)"}, {"measurement": "TPM3-NTRK1-wt/CD74-ROS1-wt selectivity ratio", "setting": "[9]", "value": "A (bin A for very high selectivity, ratio >30-fold)"}, {"measurement": "TPM3-NTRK1-wt/EML4-ALK-L1196M-G1202R selectivity ratio", "setting": "[9]", "value": "D (bin D for low selectivity, ratio <1)"}, {"measurement": "TPM3-NTRK1-wt/EML4-ALK-wt selectivity ratio", "setting": "[9]", "value": "C (bin C for moderate selectivity, ratio ≥1)"}, {"measurement": "IC50", "setting": "[10]", "value": "0.1 to 50", "unit": "nM"}, {"measurement": "IC50", "setting": "[11]", "value": "0.1 to 50", "unit": "nM"}]}
